Active and inactive are the calls of the source. The calls are words filed in the database; no cut-off is given here.
Columns and labels:
Assay type in all cases: functional, cell-based
MDA-MB-435 = test: Cytotoxicity against human MDA-MB-435 cells assessed as inhibition of cell proliferation measured after 72 hrs by CellTiter 96 AQueous One Solution Cell Proliferation assay; details: for IC50: MDA-MB-435, 72 h
OVCAR-3 = test: Cytotoxicity against human OVCAR-3 cells assessed as inhibition of cell proliferation measured after 72 hrs by CellTiter 96 AQueous One Solution Cell Proliferation assay; details: for IC50: OVCAR-3, 72 h
MDA-MB-231 = test: Cytotoxicity against human MDA-MB-231 cells assessed as inhibition of cell proliferation measured after 72 hrs by CellTiter 96 AQueous One Solution Cell Proliferation assay; details: for IC50: MDA-MB-231, 72 h
HT-29 = test: Cytotoxicity against human HT-29 cells measured after 72 hrs by CellTiter 96 AQueous One Solution Cell Proliferation assay; details: HT-29, 72 h
A2780 = test: Cytotoxicity against human A2780 cells assessed as reduction in cell viability incubated for 72 hrs by MTT assay; details: A2780, 72 h
PC-3 = test: Cytotoxicity against human PC-3 cells assessed as reduction in cell viability incubated for 72 hrs by MTT assay; details: PC-3, 72 h
HL-60 = test: Cytotoxicity against human HL-60 cells assessed as reduction in cell viability incubated for 72 hrs by MTT assay; details: HL-60, 72 h
HepG2 = test: Cytotoxicity against human HepG2 cells assessed as reduction in cell viability incubated for 72 hrs by MTT assay; details: HepG2, 72 h
HCT-116 = test: Cytotoxicity against human HCT-116 cells assessed as reduction in cell viability incubated for 72 hrs by MTT assay; details: HCT-116, 72 h
SF-295 = test: Cytotoxicity against human SF-295 cells assessed as reduction in cell viability incubated for 72 hrs by MTT assay; details: SF-295, 72 h

| Structure (SMILES) | IC50 (MDA-MB-435) [µM] | IC50 (OVCAR-3) [µM] | IC50 (MDA-MB-231) [µM] | Activity (MDA-MB-435) | Activity (OVCAR-3) | Activity (MDA-MB-231) | IC50 (A2780) [µM] | also measured |
| --- | --- | --- | --- | --- | --- | --- | --- | --- |
| CO[C@@]12OC[C@@H](O)[C@]1(C)CC[C@@H]1C2=C[C@H]2OC(=O)[C@]3(C)[C@H]2[C@]12CC[C@@]3(O)OC2 | 3.6 | 6.3 | 4 | – | – | – | – | – |
| COc1cc2c(c3occc13)C[C@@H](O)[C@@H]1[C@]23CC[C@@H](O[C@@H]2O[C@H](CO)[C@@H](O)[C@H](O)[C@H]2O)[C@@]1(C)C(=O)OC3 | – | – | – | inactive | inactive | inactive | – | – |
| COc1cc2c(c3occc13)C[C@H]1OC(=O)[C@]3(C)[C@H]1[C@@]21CO[C@]3(O)[C@@H](O[C@@H]2O[C@H](CO)[C@@H](O)[C@H](O)[C@H]2O)C1 | – | – | – | inactive | inactive | inactive | – | – |
| C[C@@]12CC[C@@H]3C(=C[C@H]4OC(=O)[C@]5(C)[C@H]4[C@]34CC[C@@]5(O)OC4)[C@]1(O)OC[C@H]2O | 2.8 | 5.6 | 3.4 | – | – | – | 1.7 | IC50 (HT-29): 4.2 µM |
| C[C@@]1([C@H](O)CO)CC[C@@H]2C(=C[C@H]3OC(=O)[C@@]4(C)CCC[C@@]2(C)[C@@H]34)C1 | – | – | – | inactive | inactive | inactive | – | – |
| C[C@@]1(C(=O)CO)CC[C@@H]2C(=C[C@H]3OC(=O)[C@]4(C)[C@H]3[C@]23CC[C@@]4(O)OC3)C1 | 2.3 | 4.4 | 2.7 | – | – | – | 3.9 | IC50 (PC-3): 3.6 µM; IC50 (HL-60): 2.1 µM; IC50 (HepG2): 5.7 µM; IC50 (HCT-116): 1.7 µM; IC50 (SF-295): 2.2 µM |
